Laboratory results published in patent US10495560B2, “Method of screening drugs” (KOREA RESEARCH INSTITUTE OF STANDARDS AND SCIENCE, priority 2015, dated 2019).

Tests used:
[1] = system: ARPE-19 human retinal epithelial cells; experiment: Blind test: screening of drugs by capacitance of the cell layer; format: cell-based
Procedure: After culturing ARPE-19 (retinal pigmented epithelium, American Type Culture Collection (ATCC), ATCC® CRL-2302™), which is human retinal epithelial cells, instead of bEND.3 similarly to the case of using bEND.3, the cultured ARPE-19 was seeded in the same sensor as that used at the time of measuring bEND.3 so that coverage was 100%. Then, stabilization (fixation) was performed under the same conditions and time as those at the time of stabilizing bEND.3.
After the cells were cultured for stabilization for 24 hours, the culture medium was exchanged.
As the exchanged medium, a reference culture medium containing tumor necrosis factor-alpha (TNF-α, R&D system, 210-TA-020/CF, 10 ng/ml) or a reference culture medium containing tumor necrosis factor-alpha (TNF-α, R&D system, 210-TA-020/CF 10 ng/ml) and TNF-α antibody (Human TNF-alpha MAb, R&D system, MAB610, 2 μg/ml) was prepared. In this case, as the reference culture medium, DMEM:F12 containing 1 vol % penicillin-streptomycin (Gibco) was used similarly to the case of using bEND.3.
After stabilization was performed, medium exchange was randomly performed on each well using the prepared culture media. In this case, medium exchange was performed on a well (reference sample) at a predetermined position using a pure reference culture medium not containing TNF-α or TNF-α antibody, such that a frequency-dependent reference capacitance value at each measurement time was also simultaneously obtained.
Capacitance was measured under the same conditions and the same time interval as those in the case of using bEND.3.
After measurement was performed, in each well, in the case in which an absolute value of an alpha value at a time point (t=50 h based on stabilization) after 26 hours of medium exchange is smaller than an absolute value of a reference alpha value at the same time point, the drug was screened as a drug increasing paracellular permeability. […]

[2] = system: tight junction proteins (ZO-1) in ARPE-19 cells; experiment: Immunocytochemistry (ZO-1 and DAPI staining) after the blind test; format: cell-based, human; conditions: FIG. 9
Procedure: After performing the screening, as described above, fluorescent staining (using ZO-1 and DAPI) was performed on the endothelial cell layer fixed between two electrodes using immunocytochemistry, and then the endothelial cell layer was observed. FIG. 9A illustrates results of the reference sample, FIG. 9B illustrates results of the sample of which the medium was exchanged with the medium containing TNF-α, and FIG. 9C illustrates results of the sample of which the medium was exchanged with the medium containing both of TNF-α and TNF-α antibody.

TNF-α was tested, and the standardized capacitance value ([1]; 100 Hz, standardized to start of stabilization, 48 hours after medium exchange (t=72 h), reference sample 1.44) was 1.31, the “time for which the standardized capacitance value was continuously decreased” value ([1]; 100 Hz, based on a time point (t=34 h) after 10 hours of medium exchange) was 48 h and the “screening result (drug increasing paracellular permeability)” value ([1]; TNF-α 10 ng/ml, three independent criteria (alpha value at 26 h, standardized capacitance at 48 h, continuous decrease at 100 Hz)) was “screened as wells contacting the drug increasing paracellular permeability”. For the same substance, the “alignment of tight junction proteins” value [2] was “disturbed”.
